# Article PMC9033141, “Beta and Gamma Amino Acid-Substituted Benzenesulfonamides as Inhibitors of Human Carbonic Anhydrases” (Pharmaceuticals, 2022)
# pKd: −log10 of the molar value. Where two headings read alike, the source gives them in different places.
# Experiments:
# CAIV = biological target: T1, CAIV (Homo sapiens, UniProt P22748); assay: Fluorescent thermal shift assay (FTSA), CAIV; assay type: binding; details: FTSA, pH 7.0, 37 °C; read-out: Observed Dissociation Constant (Kd_obs), CAIV;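 also: recombinant human enzyme, thermal denaturation followed by ANS fluorescence, melting temperature versus ligand concentration fitted for Kd_obs, intrinsic value corrected for deprotonated sulfonamide and Zn-bound water fractions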
# T1 construct: made in house; host or cells: E. coli
# T1 sequence (P22748 19-312): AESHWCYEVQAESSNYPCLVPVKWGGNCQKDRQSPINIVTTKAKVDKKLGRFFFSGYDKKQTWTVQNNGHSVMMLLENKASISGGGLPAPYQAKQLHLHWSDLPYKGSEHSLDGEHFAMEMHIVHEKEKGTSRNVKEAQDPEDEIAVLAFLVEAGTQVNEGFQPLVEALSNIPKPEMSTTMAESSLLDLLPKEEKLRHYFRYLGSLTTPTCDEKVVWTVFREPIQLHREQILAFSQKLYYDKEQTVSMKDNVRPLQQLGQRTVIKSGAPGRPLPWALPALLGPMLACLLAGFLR
# CAVI = biological target: T2, CAVI (Homo sapiens, UniProt P23280); assay: Fluorescent thermal shift assay (FTSA), CAVI; assay type: binding; details: FTSA, pH 7.0, 37 °C; read-out: Observed Dissociation Constant (Kd_obs), CAVI;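 also: human CAVI expressed in mammalian cells, ANS fluorescence tracked during thermal unfolding, melting temperature fitted against ligand concentration, intrinsic values corrected for deprotonated sulfonamide and Zn-bound water fractions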
# T2 construct: made in house
# T2 sequence (P23280 21-290 limits assumed): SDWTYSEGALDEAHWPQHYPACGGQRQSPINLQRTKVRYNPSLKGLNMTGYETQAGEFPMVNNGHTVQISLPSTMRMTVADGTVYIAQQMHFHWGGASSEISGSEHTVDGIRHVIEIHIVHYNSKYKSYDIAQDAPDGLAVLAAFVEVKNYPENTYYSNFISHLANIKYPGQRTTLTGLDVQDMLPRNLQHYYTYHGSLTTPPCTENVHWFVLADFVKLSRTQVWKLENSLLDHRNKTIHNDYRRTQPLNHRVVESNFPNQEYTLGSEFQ
# CAVII = biological target: T3, CAVII (Homo sapiens, UniProt P43166); assay: Fluorescent thermal shift assay (FTSA), CAVII; assay type: binding; details: FTSA, pH 7.0, 37 °C; read-out: Observed Dissociation Constant (Kd_obs), CAVII
# T3 construct: made in house; host or cells: E. coli
# T3 sequence (P43166 whole entry): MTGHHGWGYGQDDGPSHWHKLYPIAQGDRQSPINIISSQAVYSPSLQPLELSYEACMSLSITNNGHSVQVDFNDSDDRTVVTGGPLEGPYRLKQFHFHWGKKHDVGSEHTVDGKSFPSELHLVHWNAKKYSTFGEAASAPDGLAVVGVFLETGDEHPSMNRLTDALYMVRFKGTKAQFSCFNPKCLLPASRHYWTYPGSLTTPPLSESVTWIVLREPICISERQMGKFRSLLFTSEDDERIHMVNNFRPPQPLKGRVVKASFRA
# CAIX = biological target: T4, CAIX (Homo sapiens, UniProt Q16790); assay: biochemical; assay type: binding; details: FTSA
# T4 construct: made in house
# CAVA = biological target: T5, CAVA (Homo sapiens, UniProt P35218); assay: Fluorescent thermal shift assay (FTSA), CAVA; assay type: binding; details: FTSA, pH 7.0, 37 °C; read-out: Observed Dissociation Constant (Kd_obs), CAVA
# T5 construct: made in house; host or cells: E. coli
# T5 sequence (P35218 39-305): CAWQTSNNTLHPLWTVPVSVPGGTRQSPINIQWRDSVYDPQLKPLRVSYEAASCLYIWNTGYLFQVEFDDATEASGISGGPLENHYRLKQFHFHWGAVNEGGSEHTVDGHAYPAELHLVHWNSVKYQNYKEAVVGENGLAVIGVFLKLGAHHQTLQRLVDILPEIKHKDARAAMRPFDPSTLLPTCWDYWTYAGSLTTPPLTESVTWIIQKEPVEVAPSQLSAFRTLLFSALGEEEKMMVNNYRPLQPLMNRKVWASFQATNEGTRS
# Experimental: (§1) Human CA isozymes were expressed in E. coli (CAI, II, III, IV, VA, VB, VII, XII, XIII, XIV) or mammalian cells (CAVI and CAIX), chromatographically purified following the published protocols [47], and stored at −80 °C. The protein concentration was determined by UV absorption at 280 nm using Beer–Lambert law.
# (§2) The QIAGEN Rotor-Gene Q was used to carry out the experiments, with a blue channel used for excitation (365 nm) and detection (460 nm). FTSA in this case relies on an extrinsic probe, 8-anilino-1-naphthalenesulfonate (ANS), to detect the fluorescence increase during protein denaturation, from which protein melting temperature (Tm) can be determined. […] The observed affinity of ligands for CAs was determined by plotting the Tm as a function of ligand concentration and then fitting a curve as described previously [48]. […] Samples were heated from 25 °C to 99 °C at the speed of 1 °C/min.
# (§3) The intrinsic thermodynamic parameters were calculated as described in [40]. The intrinsic reaction of inhibitor binding to CA is shown in Equation (1). […] It is known that CA proteins bind sulfonamides only when water molecules are coordinated to the Zn(II) ion, and sulfonamides only bind to CA proteins when their amino group is deprotonated (confirmed by neutron crystallography [53, 54, 55]):(1) CA Zn^II−H2O+RSO2NH^−⇄ CA Zn^II−NH SO2R+H2O
# (§4) When calculating Kd_int values, these protein and ligand fractions from Equation (1) have to be accounted for (Equations (2) and (3)). The intrinsic dissociation constant is calculated by multiplying Kd_obs value by the corresponding fractions of protein and ligand (Equation (4)). (2) fRSO2NH^−=10^pH−pKa_RSO2NH2/1+10^pH−pKa_RSO2NH2 (3) fCAZnH2O=1−10^pH−pKa_CAZnH2O/1+10^pH−pKa_CAZnH2O (4) Kd_int=Kd_obs×fRSO2NH^−×fCAZnH2O (5) ΔGint0=RTlnKd_int
# (§5) The intrinsic standard Gibbs energy changes upon binding were calculated using Equation (5). Here, R—universal ideal gas constant (8.3144 J/mol·K), T—absolute temperature (310.15 K).
# CAIII = biological target: T6, CAIII (Homo sapiens, UniProt P07451); assay: Fluorescent thermal shift assay (FTSA), CAIII; assay type: binding; details: FTSA, pH 7.0, 37 °C; read-out: Observed Dissociation Constant (Kd_obs), CAIII
# T6 construct: made in house; host or cells: E. coli
# T6 sequence (P07451 whole entry): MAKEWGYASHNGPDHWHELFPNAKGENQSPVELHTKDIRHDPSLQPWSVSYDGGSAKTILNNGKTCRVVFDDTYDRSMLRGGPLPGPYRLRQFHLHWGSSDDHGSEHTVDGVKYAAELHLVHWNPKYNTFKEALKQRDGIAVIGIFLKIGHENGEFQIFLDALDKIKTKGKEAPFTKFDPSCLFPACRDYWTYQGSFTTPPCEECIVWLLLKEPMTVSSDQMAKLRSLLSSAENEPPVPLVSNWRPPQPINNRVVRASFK
# Experimental: as §1, §2, §3, §4, §5
# CAI = biological target: T7, CAI (Homo sapiens, UniProt P00915); assay: biochemical; assay type: binding; details: FTSA
# T7 construct: made in house; host or cells: E. coli
# T7 sequence (P00915 whole entry): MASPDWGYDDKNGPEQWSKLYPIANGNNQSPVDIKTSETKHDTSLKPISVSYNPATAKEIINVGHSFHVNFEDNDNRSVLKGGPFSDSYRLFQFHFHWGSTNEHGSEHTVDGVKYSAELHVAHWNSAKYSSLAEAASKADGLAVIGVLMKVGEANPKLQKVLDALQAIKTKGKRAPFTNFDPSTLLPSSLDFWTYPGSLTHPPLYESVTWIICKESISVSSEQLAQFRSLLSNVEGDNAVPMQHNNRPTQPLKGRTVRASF
# CAXII = biological target: T8, CAXII (Homo sapiens, UniProt O43570); assay: biochemical; assay type: binding; details: FTSA
# T8 construct: made in house; host or cells: E. coli
# T8 sequence (O43570 25-354): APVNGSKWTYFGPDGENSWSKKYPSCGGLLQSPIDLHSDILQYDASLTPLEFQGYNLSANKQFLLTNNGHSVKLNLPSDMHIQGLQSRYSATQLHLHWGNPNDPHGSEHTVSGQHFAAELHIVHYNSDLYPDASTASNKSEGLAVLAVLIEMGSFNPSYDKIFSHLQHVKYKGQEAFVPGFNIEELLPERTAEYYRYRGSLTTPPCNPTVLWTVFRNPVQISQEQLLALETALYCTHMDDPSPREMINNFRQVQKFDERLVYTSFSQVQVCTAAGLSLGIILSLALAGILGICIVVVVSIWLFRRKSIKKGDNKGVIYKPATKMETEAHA
# CAXIV = biological target: T9, CAXIV (Homo sapiens, UniProt Q9ULX7); assay: Fluorescent thermal shift assay (FTSA), CAXIV; assay type: binding; details: FTSA, pH 7.0, 37 °C; read-out: Observed Dissociation Constant (Kd_obs), CAXIV;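 also: recombinant human CA XIV from E. coli, ANS-based thermal shift: Kd_obs fitted from melting temperature versus ligand concentration, ΔGint from Kd_obs corrected for deprotonated sulfonamide and Zn-water fractions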
# T9 construct: made in house; host or cells: E. coli
# T9 sequence (Q9ULX7 16-337): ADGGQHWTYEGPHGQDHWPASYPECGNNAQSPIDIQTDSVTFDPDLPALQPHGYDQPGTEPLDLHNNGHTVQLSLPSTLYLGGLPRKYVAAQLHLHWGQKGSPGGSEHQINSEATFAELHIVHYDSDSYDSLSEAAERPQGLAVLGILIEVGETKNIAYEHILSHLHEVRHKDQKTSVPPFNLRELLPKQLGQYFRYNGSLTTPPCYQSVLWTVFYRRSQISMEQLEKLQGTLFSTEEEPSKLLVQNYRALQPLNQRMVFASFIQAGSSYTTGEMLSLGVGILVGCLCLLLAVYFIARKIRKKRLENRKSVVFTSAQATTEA
# Experimental: as §1, §2, §3, §4, §5
# CAII = biological target: T10, CAII (Homo sapiens, UniProt P00918); assay: biochemical; assay type: binding; details: FTSA
# T10 construct: made in house; host or cells: E. coli
# Experimental: as §1, §2
# (§6) The intrinsic thermodynamic parameters were calculated as described in [40]. The intrinsic reaction of inhibitor binding to CA is shown in Equation (1).
# as §4, §5
# CAVB = biological target: T11, CAVB (Homo sapiens, UniProt Q9Y2D0); assay: Fluorescent thermal shift assay (FTSA), CAVB; assay type: binding; details: FTSA, pH 7.0, 37 °C; read-out: Observed Dissociation Constant (Kd_obs), CAVB
# T11 construct: made in house; host or cells: E. coli
# T11 sequence (Q9Y2D0 34-317): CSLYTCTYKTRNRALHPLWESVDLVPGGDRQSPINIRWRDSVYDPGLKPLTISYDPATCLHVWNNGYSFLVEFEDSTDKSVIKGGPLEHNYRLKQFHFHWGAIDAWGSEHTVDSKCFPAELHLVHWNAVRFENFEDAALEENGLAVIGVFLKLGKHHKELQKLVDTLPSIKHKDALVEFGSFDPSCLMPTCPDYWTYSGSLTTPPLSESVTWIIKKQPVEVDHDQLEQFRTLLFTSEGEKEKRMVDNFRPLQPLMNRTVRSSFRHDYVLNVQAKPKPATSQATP
# CAXIII = CAXIII (Homo sapiens, UniProt Q8N1Q1); assay: biochemical; details: FTSA;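 also: recombinant human CAXIII melting temperature tracked by ANS fluorescence in thermal shift assay, Tm fitted against ligand concentration, intrinsic value corrects Kd for deprotonated sulfonamide and Zn-bound water fractions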
# CAXIII, sequence (Q8N1Q1 whole entry): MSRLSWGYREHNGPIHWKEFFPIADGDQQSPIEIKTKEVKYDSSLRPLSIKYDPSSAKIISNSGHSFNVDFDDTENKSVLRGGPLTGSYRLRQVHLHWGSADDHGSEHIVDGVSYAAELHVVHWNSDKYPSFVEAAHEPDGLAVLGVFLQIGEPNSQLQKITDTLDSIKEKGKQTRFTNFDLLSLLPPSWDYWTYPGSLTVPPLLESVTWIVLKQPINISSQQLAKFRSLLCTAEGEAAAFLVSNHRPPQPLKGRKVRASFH
# Experimental: as §1, §2, §6, §4, §5
# [1] = pH 7.0, 37 °C, read-out: Observed Dissociation Constant (Kd_obs), CAIX
# [2] = pH 7.0, 37 °C, read-out: Observed Dissociation Constant (Kd_obs), CAI
# [3] = pH 7.0, 37 °C, read-out: Observed Dissociation Constant (Kd_obs), CAXII
# [4] = pH 7.0, 37 °C, read-out: Observed Dissociation Constant (Kd_obs), CAII
# [5] = Observed Dissociation Constant (Kd_obs), pH 7.0, 37 °C
# 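For Observed Dissociation Constant (Kd obs), CAXII in this document: recombinant CAXII made in E. coli, ANS-fluorescence thermal shift with affinity fitted from Tm versus ligand concentration, intrinsic energy from Kd_obs corrected for deprotonated sulfonamide and Zn-water fractions.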
pKd (CAIV),pKd (CAVI),pKd (CAVII),pKd (CAIX; [1]),pKd (CAVA),pKd (CAIII),pKd (CAI; [2]),pKd (CAXII; [3]),pKd (CAXIV),pKd (CAII; [4]),pKd (CAVB),melting point [°C],pKd (CAXIII; [5]),"pKd (CAIX; read-out: Kd_obs, CAIX)","pKd (CAI; read-out: Kd_obs, CAI)","pKd (CAXII; read-out: Kd_obs, CAXII)","pKd (CAII; read-out: Kd_obs, CAII)",pKd (CAXIII; Kd_obs),SMILES
6.00,6.00,6.96,7.48,4.70,4.82,7.17,7.30,7.30,7.30,5.96,158 to 159,6.40,,,,,,"NS(=O)(=O)c1ccc(NCC(CC(=O)NNC(=S)Nc2ccccc2)C(=O)NNC(=S)Nc2ccccc2)c(Cl)c1 (centres unmarked) [Compound 23b, 2,2′-(2-(((2-Chloro-4-sulfamoylphenyl)amino)methyl)succinyl)bis(N-phenylhydrazine-1-carbothioamide)]"
5.70,5.48,6.17,7.00,5.17,≤ 3.70,5.48,5.66,6.89,6.40,≤ 3.70,212 to 213,5.77,,,,,,CNC(=S)NNC(=O)CC(CNc1ccc(S(N)(=O)=O)cc1Cl)C(=O)NNC(=S)NC (centres unmarked) [Compound 22b]
6.00,5.00,6.60,6.77,≤ 3.70,≤ 3.70,6.17,4.85,6.00,6.82,6.92,195 to 196,6.66,,,,,,"CCOC(=O)c1sc(N(CCC(=O)NN=Cc2ccccc2)c2ccc(S(N)(=O)=O)cc2)nc1C [Compound 34, Ethyl 2-((3-(2-Benzylidenehydrazineyl)-3-oxopropyl)(4-sulfamoylphenyl)amino)-4-methylthiazole-5-carboxylate]"
,,,6.25,,,5.00,5.00,,5.77,,195 to 196,5.40,,,,,,"Cc1ccc(C)n1NC(=O)CC(CNc1ccc(S(N)(=O)=O)cc1)C(=O)Nn1c(C)ccc1C (centres unmarked) [Compound 19a, N^1,N^4-bis(2,5-Dimethyl-1H-pyrrol-1-yl)-2-(((4-sulfamoylphenyl)amino)methyl)succinamide]"
,,,5.40,,,4.11,4.15,,4.85,,164 to 165,3.89,3.89 to 6.08,3.89 to 6.08,3.89 to 6.08,3.89 to 6.08,3.89 to 6.08,"NNC(=O)CC(CNc1ccc(S(N)(=O)=O)cc1)C(=O)NN (centres unmarked) [Compound 2a, 4-((2-(Hydrazinecarbonyl)-4-hydrazineyl-4-oxobutyl)amino)benzenesulfonamide]"
,,,6.17,,,5.00,4.48,,5.70,,192 to 193,5.30,,,,,,"NS(=O)(=O)c1ccc(NCC(CC(=O)NN=Cc2cccc(O)c2)C(=O)NN=Cc2cccc(O)c2)cc1 (centres unmarked) [Compound 8a, 4-((2-(2-(3-Hydroxybenzylidene)hydrazine-1-carbonyl)-4-(2-(3-hydroxybenzylidene)hydrazineyl)-4-oxobutyl)amino)benzenesulfonamide]"
,,,6.85,,,5.60,4.30,,6.30,,178 to 179,6.40,,,,,,"NS(=O)(=O)c1ccc(NCC(CC(=O)NN=Cc2ccccc2[N+](=O)[O-])C(=O)NN=Cc2ccccc2[N+](=O)[O-])c(Cl)c1 (centres unmarked) [Compound 15b, 3-Chloro-4-((2-(2-(2-nitrobenzylidene)hydrazine-1-carbonyl)-4-(2-(2-nitrobenzylidene)hydrazineyl)-4-oxobutyl)amino)benzenesulfonamide]"
